pKi: −log10 of the molar value.
Columns and labels:
JAK-3 = target: T1, JAK-3 (Homo sapiens, UniProt P52333); experiment: JAK-3 inhibition assay; assay type: biochemical
T1 sequence (P52333 1-1124): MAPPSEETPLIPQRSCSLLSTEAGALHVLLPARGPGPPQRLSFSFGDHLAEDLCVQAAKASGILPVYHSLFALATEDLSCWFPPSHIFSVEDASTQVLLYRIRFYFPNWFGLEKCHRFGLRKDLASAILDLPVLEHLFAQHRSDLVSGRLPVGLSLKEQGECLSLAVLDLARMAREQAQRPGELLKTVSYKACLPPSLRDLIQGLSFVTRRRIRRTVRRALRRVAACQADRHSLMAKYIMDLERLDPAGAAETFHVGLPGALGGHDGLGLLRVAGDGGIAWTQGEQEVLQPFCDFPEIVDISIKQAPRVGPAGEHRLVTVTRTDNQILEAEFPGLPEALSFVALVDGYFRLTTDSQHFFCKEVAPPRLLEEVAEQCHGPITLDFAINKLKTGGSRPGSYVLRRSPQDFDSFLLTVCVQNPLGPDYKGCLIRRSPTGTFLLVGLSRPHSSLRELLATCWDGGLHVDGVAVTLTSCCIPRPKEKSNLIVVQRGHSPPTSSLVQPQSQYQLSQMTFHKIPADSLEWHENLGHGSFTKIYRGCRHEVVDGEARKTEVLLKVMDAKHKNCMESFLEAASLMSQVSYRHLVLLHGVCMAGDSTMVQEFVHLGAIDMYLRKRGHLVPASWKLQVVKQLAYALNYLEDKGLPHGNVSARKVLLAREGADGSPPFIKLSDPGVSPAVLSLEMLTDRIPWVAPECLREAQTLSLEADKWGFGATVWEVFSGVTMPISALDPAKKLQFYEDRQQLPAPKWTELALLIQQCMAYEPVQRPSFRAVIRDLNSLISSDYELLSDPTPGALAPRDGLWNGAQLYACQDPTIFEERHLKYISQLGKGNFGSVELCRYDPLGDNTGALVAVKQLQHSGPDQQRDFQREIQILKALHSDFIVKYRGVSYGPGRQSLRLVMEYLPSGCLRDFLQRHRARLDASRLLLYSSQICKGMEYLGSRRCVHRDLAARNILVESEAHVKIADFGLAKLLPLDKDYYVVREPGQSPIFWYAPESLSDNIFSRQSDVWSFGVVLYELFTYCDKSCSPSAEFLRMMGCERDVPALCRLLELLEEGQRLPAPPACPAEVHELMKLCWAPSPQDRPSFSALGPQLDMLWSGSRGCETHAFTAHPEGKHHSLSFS
Description: Compounds were screened for their ability to inhibit JAK using the assay shown below. Reactions were carried out in a kinase buffer containing 100 mM HEPES (pH 7.4), 1 mM DTT, 10 mM MgCl2, 25 mM NaCl, and 0.01% BSA.
Substrate concentrations in the assay were 5 μM ATP (200 μCi/μmole ATP) and 1 μM poly(Glu)4Tyr. Reactions were carried out at 25° C. and 1 nM JAK-3.
To each well of a 96 well polycarbonate plate was added 1.5 μL of a candidate JAK-3 inhibitor along with 50 μL of kinase buffer containing 2 μM poly(Glu)4Tyr and 10 μM ATP. This was then mixed and 50 μL of kinase buffer containing 2 nM JAK-3 enzyme was added to start the reaction. After 20 minutes at room temperature (25° C.), the reaction was stopped with 50 μL of 20% trichloroacetic acid (TCA) that also contained 0.4 mM ATP. The entire contents of each well were then transferred to a 96 well glass fiber filter plate using a TomTek Cell Harvester. After washing, 60 μL of scintillation fluid was added and ^33P incorporation detected on a Perkin Elmer TopCount. After removing the mean background values for all of the data points, the data were fit using Prism software to obtain a Ki value (app).

JAK-2 = JAK-2 (Homo sapiens, UniProt O60674); experiment: JAK-2 inhibition assay; assay type: biochemical
Sequence of JAK-2 (O60674 whole entry): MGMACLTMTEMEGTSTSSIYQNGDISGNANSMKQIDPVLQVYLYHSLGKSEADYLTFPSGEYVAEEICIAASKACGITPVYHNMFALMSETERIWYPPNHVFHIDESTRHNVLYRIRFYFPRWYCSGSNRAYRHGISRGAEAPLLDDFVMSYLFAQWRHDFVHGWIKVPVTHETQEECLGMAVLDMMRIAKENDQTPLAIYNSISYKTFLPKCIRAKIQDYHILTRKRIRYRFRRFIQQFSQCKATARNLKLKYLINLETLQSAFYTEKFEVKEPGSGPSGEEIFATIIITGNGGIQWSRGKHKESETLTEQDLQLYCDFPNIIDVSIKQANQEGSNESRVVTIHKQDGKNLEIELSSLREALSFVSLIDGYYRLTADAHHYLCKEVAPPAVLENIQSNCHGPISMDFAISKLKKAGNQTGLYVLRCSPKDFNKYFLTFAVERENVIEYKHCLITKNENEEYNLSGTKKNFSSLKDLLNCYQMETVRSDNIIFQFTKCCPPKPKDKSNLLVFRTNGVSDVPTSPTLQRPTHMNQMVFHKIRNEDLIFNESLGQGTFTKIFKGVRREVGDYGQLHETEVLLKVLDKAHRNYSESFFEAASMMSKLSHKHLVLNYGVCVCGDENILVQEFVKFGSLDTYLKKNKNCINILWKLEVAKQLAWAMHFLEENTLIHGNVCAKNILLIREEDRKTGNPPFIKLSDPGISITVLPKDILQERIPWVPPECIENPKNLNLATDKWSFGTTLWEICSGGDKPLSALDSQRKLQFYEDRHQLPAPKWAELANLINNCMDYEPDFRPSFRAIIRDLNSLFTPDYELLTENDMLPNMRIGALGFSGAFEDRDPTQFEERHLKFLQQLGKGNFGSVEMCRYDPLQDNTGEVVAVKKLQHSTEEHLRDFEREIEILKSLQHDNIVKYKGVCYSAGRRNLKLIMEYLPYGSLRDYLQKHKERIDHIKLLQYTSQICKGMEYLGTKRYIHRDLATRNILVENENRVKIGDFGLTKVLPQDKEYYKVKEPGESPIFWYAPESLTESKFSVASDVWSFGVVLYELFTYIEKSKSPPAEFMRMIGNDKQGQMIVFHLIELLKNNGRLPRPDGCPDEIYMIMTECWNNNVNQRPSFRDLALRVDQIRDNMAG

| SMILES | pKi (JAK-3) | pKi (JAK-2) |
| --- | --- | --- |
| c1ccc(COCC2Nc3ccccc3-c3ccnc4[nH]cc2c34)cc1 (stereo not drawn) [Compound 1] | 5.60 to 6.60 |  |
| c1ccc(COCC2Nc3ccccc3-c3ncnc4[nH]cc2c34)cc1 (stereo not drawn) [Compound 2] | < 5.60 | < 5.60 |
| c1ccc(C2Nc3ccccc3-c3ncnc4[nH]cc2c34)cc1 (stereo not drawn) [Compound 3] | 5.60 to 6.60 | < 5.60 |
| FC(F)(F)C1Nc2ccccc2-c2ncnc3[nH]cc1c23 (stereo not drawn) [Compound 4] | < 5.60 | < 5.60 |
| CC(C)(C)C1Nc2ccccc2-c2ccnc3[nH]cc1c23 (stereo not drawn) [Compound 6] | 5.60 to 6.60 |  |
| CCOC(=O)C1Nc2ccccc2-c2ccnc3[nH]cc1c23 (stereo not drawn) [Compound 8] | 5.60 to 6.60 | 5.60 to 6.60 |
| c1ccc2c(c1)NC(C1CCCCC1)c1c[nH]c3nccc-2c13 (stereo not drawn) [Compound 10] | < 5.60 |  |
| CCC1Nc2ccccc2-c2ccnc3[nH]cc1c23 (stereo not drawn) [Compound 14] | 5.60 to 6.60 |  |
| CC(C)CC1Nc2ccccc2-c2ccnc3[nH]cc1c23 (stereo not drawn) [Compound 15] | < 5.60 |  |
| CC(C)C1Nc2ccccc2-c2ccnc3[nH]cc1c23 (stereo not drawn) [Compound 16] | < 5.60 |  |
| Fc1cccc(F)c1C1Nc2ccccc2-c2ccnc3[nH]cc1c23 (stereo not drawn) [Compound 18] | 5.60 to 6.60 | > 6.60 |
| c1ccc2c(c1)NC(c1ccc3c(c1)OCO3)c1c[nH]c3nccc-2c13 (stereo not drawn) [Compound 22] | 5.60 to 6.60 | > 6.60 |
| O=C(O)C1Nc2ccccc2-c2ccnc3[nH]cc1c23 (stereo not drawn) [Compound 23] | 5.60 to 6.60 | 5.60 to 6.60 |
| Fc1cccc(C2Nc3ccccc3-c3ccnc4[nH]cc2c34)c1F (stereo not drawn) [Compound 25] | 5.60 to 6.60 | > 6.60 |
| Fc1cc(F)cc(C2Nc3ccccc3-c3ccnc4[nH]cc2c34)c1 (stereo not drawn) [Compound 28] | 5.60 to 6.60 | 5.60 to 6.60 |
| Fc1ccc(C2Nc3ccccc3-c3ccnc4[nH]cc2c34)c(F)c1F (stereo not drawn) [Compound 29] | 5.60 to 6.60 |  |
| Fc1ccc(F)c(C2Nc3ccccc3-c3ccnc4[nH]cc2c34)c1F (stereo not drawn) [Compound 30] | ≥ 6.60 | > 6.60 |
| Fc1cc(F)c(C2Nc3ccccc3-c3ccnc4[nH]cc2c34)cc1F (stereo not drawn) [Compound 31] | 5.60 to 6.60 | > 6.60 |
| Fc1cccc(C(F)(F)F)c1C1Nc2ccccc2-c2ccnc3[nH]cc1c23 (stereo not drawn) [Compound 34] | 5.60 to 6.60 | 5.60 to 6.60 |
| COc1ccc(C2Nc3ccccc3-c3ccnc4[nH]cc2c34)cc1F (stereo not drawn) [Compound 45] | 5.60 to 6.60 | > 6.60 |
| Fc1cccc(F)c1C1Nc2ncccc2-c2ccnc3[nH]cc1c23 (stereo not drawn) [Compound 47] | 5.60 to 6.60 | 5.60 to 6.60 |
| OCCCCC1Nc2ccccc2-c2ccnc3[nH]cc1c23 (stereo not drawn) [Compound 59] | < 5.60 |  |
| CNC(=O)c1ccc(C2Nc3ccccc3-c3ccnc4[nH]cc2c34)cc1 (stereo not drawn) [Compound 91] | < 5.60 |  |
| COC(=O)C1(c2ccc([N+](=O)[O-])cc2)Nc2ccccc2-c2ccnc3[nH]cc1c23 (stereo not drawn) [Compound 98] | 5.60 to 6.60 |  |
| COC(=O)C1(c2ccc(O)cc2)Nc2ccccc2-c2ccnc3[nH]cc1c23 (stereo not drawn) [Compound 103] | ≥ 6.60 |  |
| Oc1ccc(C2Nc3ccccc3-c3ncnc4[nH]cc2c34)cc1F (stereo not drawn) [Compound 116] | ≥ 6.60 |  |
| Oc1ccc(C2Nc3ccccc3-c3ncnc4[nH]cc2c34)c(F)c1 (stereo not drawn) [Compound 118] | ≥ 6.60 |  |
| CS(=O)(=O)Nc1ccc(C2Nc3ccccc3-c3ccnc4[nH]cc2c34)cc1 (stereo not drawn) [Compound 123] | < 5.60 |  |
| COC(=O)CC1Nc2ccccc2-c2ccnc3[nH]cc1c23 (stereo not drawn) [Compound 156] | 5.60 to 6.60 |  |

Results, then the compound that gave them:

| pKi (JAK-3) | pKi (JAK-2) | SMILES |
| --- | --- | --- |
| 5.60 to 6.60 |  | c1ccc(C2Nc3ccccc3-c3ccnc4[nH]cc2c34)cc1 (stereo not drawn) [Compound 5] |
| 5.60 to 6.60 | > 6.60 | Fc1ccccc1C1Nc2ccccc2-c2ccnc3[nH]cc1c23 (stereo not drawn) [Compound 7] |
| 5.60 to 6.60 | 5.60 to 6.60 | COc1ccccc1C1Nc2ccccc2-c2ccnc3[nH]cc1c23 (stereo not drawn) [Compound 9] |
| 5.60 to 6.60 | > 6.60 | Fc1cccc(C2Nc3ccccc3-c3ccnc4[nH]cc2c34)c1 (stereo not drawn) [Compound 11] |
| 5.60 to 6.60 | 5.60 to 6.60 | Fc1ccc(C2Nc3ccccc3-c3ccnc4[nH]cc2c34)cc1 (stereo not drawn) [Compound 12] |
| 5.60 to 6.60 | 5.60 to 6.60 | c1ccc2c(c1)NCc1c[nH]c3nccc-2c13 [Compound 13] |
| 5.60 to 6.60 | 5.60 to 6.60 | Clc1ccccc1C1Nc2ccccc2-c2ccnc3[nH]cc1c23 (stereo not drawn) [Compound 17] |
| 5.60 to 6.60 | 5.60 to 6.60 | FC(F)(F)c1ccccc1C1Nc2ccccc2-c2ccnc3[nH]cc1c23 (stereo not drawn) [Compound 19] |
| 5.60 to 6.60 | 5.60 to 6.60 | Oc1ccccc1C1Nc2ccccc2-c2ccnc3[nH]cc1c23 (stereo not drawn) [Compound 20] |
| 5.60 to 6.60 | 5.60 to 6.60 | Brc1ccccc1C1Nc2ccccc2-c2ccnc3[nH]cc1c23 (stereo not drawn) [Compound 21] |
| 5.60 to 6.60 |  | c1ccc(CC2Nc3ccccc3-c3ccnc4[nH]cc2c34)cc1 (stereo not drawn) [Compound 24] |
| 5.60 to 6.60 | > 6.60 | Fc1ccc(C2Nc3ccccc3-c3ccnc4[nH]cc2c34)c(F)c1 (stereo not drawn) [Compound 26] |
| ≥ 6.60 | > 6.60 | Fc1ccc(F)c(C2Nc3ccccc3-c3ccnc4[nH]cc2c34)c1 (stereo not drawn) [Compound 27] |
| < 5.60 | 5.60 to 6.60 | Fc1ccc(C2Nc3ccccc3-c3ccnc4[nH]cc2c34)c(Cl)c1 (stereo not drawn) [Compound 32] |
| 5.60 to 6.60 | 5.60 to 6.60 | Fc1cccc(Cl)c1C1Nc2ccccc2-c2ccnc3[nH]cc1c23 (stereo not drawn) [Compound 33] |
| 5.60 to 6.60 | 5.60 to 6.60 | O=[N+]([O-])c1ccccc1C1Nc2ccccc2-c2ccnc3[nH]cc1c23 (stereo not drawn) [Compound 35] |
| 5.60 to 6.60 | 5.60 to 6.60 | Fc1ncccc1C1Nc2ccccc2-c2ccnc3[nH]cc1c23 (stereo not drawn) [Compound 36] |

| pKi (JAK-3) | pKi (JAK-2) | SMILES |
| --- | --- | --- |
| < 5.60 | < 5.60 | c1ccc(C2Nc3ccccc3-c3ccnc4[nH]cc2c34)nc1 (stereo not drawn) [Compound 37] |
| 5.60 to 6.60 | 5.60 to 6.60 | c1cncc(C2Nc3ccccc3-c3ccnc4[nH]cc2c34)c1 (stereo not drawn) [Compound 38] |
| 5.60 to 6.60 | > 6.60 | Fc1cc(C2Nc3ccccc3-c3ccnc4[nH]cc2c34)ccc1Cl (stereo not drawn) [Compound 39] |
| 5.60 to 6.60 | 5.60 to 6.60 | Clc1cccc(C2Nc3ccccc3-c3ccnc4[nH]cc2c34)c1 (stereo not drawn) [Compound 40] |
| < 5.60 | 5.60 to 6.60 | Clc1cccc(C2Nc3ccccc3-c3ccnc4[nH]cc2c34)c1Cl (stereo not drawn) [Compound 41] |
| 5.60 to 6.60 | 5.60 to 6.60 | Clc1cccc(Cl)c1C1Nc2ccccc2-c2ccnc3[nH]cc1c23 (stereo not drawn) [Compound 42] |
| < 5.60 | 5.60 to 6.60 | c1ccc2c(c1)NC(c1ccncc1)c1c[nH]c3nccc-2c13 (stereo not drawn) [Compound 43] |
| 5.60 to 6.60 | > 6.60 | c1ccc2c(c1)N=C(c1ccncc1)c1c[nH]c3nccc-2c13 [Compound 44] |
| ≥ 6.60 | > 6.60 | Oc1ccc(C2Nc3ccccc3-c3ccnc4[nH]cc2c34)c(Cl)c1 (stereo not drawn) [Compound 46] |
| 5.60 to 6.60 | 5.60 to 6.60 | Fc1cccc(C2Nc3ncccc3-c3ccnc4[nH]cc2c34)c1 (stereo not drawn) [Compound 48] |
| ≥ 6.60 |  | Oc1ccc(C2Nc3ccccc3-c3ccnc4[nH]cc2c34)cc1 (stereo not drawn) [Compound 65] |
| ≥ 6.60 |  | Oc1ccc(C2Nc3ccccc3-c3ccnc4[nH]cc2c34)cc1Br (stereo not drawn) [Compound 77] |
| < 5.60 |  | O=C(O)c1ccc(C2Nc3ccccc3-c3ccnc4[nH]cc2c34)cc1 (stereo not drawn) [Compound 88] |
| ≥ 6.60 |  | Oc1ccc(C2Nc3ccccc3-c3ccnc4[nH]cc2c34)cc1F (stereo not drawn) [Compound 105] |
| ≥ 6.60 |  | Oc1ccc(C2Nc3ccccc3-c3ccnc4[nH]cc2c34)c(F)c1 (stereo not drawn) [Compound 107] |
| ≥ 6.60 |  | O=C1Nc2ccccc2-c2ccnc3[nH]cc(c23)C1c1ccc(O)cc1 (stereo not drawn) [Compound 125] |
| ≥ 6.60 |  | OCc1ccc(C2Nc3ccccc3-c3ccnc4[nH]cc2c34)cc1 (stereo not drawn) [Compound 154] |
